Our source for the Km values is paper PMC6652007, “Metabolic engineering of Clostridium thermocellum for n-butanol production from cellulose” (Biotechnology for Biofuels, 2019).

Assay [1] deals with T1, Ts_Bad.
T1 construct: gene bad; His-tagged (vector pD861-CH), codon-optimised, expressed in E. coli BL21(DE3), purified anaerobically
The experiment in a line: NADH oxidation, A340. In kind it is biochemical, Thermoanaerobacter sp. (strain X514). The following applies: 0.3 mM NADH, 100 mM MOPS-KOH pH 7.5, 55 °C, anaerobic. The source says: NADH oxidation, A340 on Ts_Bad

Assay [2] addresses T2, Tt_Hbd (Thermoanaerobacterium thermosaccharolyticum, UniProt P77851, D31A/I32R, form not given).
T2 construct: gene hbd; His-tagged (vector pD861-CH), codon-optimised, expressed in E. coli BL21(DE3)
Put plainly: NAD(P)H oxidation, A340. The settings on record: acetoacetyl-CoA as substrate, 100 mM MOPS-KOH pH 7.5, 55 °C. The format is biochemical. The source says:
NAD(P)H oxidation, A340 on Tt_Hbd

Like-named read-outs stand apart in the source and are kept apart here.

T2 sequence (P77851 whole entry D31A/I32R, form open): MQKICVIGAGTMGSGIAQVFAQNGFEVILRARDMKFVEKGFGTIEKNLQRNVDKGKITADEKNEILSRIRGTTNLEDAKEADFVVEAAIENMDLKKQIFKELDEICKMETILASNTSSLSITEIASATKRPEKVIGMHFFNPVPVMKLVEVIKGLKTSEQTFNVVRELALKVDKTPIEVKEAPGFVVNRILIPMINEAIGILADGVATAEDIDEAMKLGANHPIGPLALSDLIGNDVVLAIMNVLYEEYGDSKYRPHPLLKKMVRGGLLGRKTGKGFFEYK

Regarding `CCCC(=O)SCCNC(=O)CCNC(=O)[C@H](O)C(C)(C)COP(=O)(O)OP(=O)(O)OC[C@H]1O[C@@H](n2cnc3c(N)ncnc32)[C@H](O)[C@@H]1OP(=O)(O)O` [Butyryl-CoA], in assay [1], the Km stood at 200 ± 100 µM.

As for `NC(=O)C1=CN([C@@H]2O[C@H](COP(=O)(O)OP(=O)(O)OC[C@H]3O[C@@H](n4cnc5c(N)ncnc54)[C@H](OP(=O)(O)O)[C@@H]3O)[C@@H](O)[C@H]2O)C=CC1` [NADPH], in assay [2] (read-out: NADPH / Km), the Km was found to be 30 ± 10 µM.

Regarding `NC(=O)C1=CN([C@@H]2O[C@H](COP(=O)(O)OP(=O)(O)OC[C@H]3O[C@@H](n4cnc5c(N)ncnc54)[C@H](O)[C@@H]3O)[C@@H](O)[C@H]2O)C=CC1` [NADH], the Km in assay [2] (read-out: NADH / Km) amounted to 110 ± 20 µM. On to `CC(=O)SCCNC(=O)CCNC(=O)[C@H](O)C(C)(C)COP(=O)(O)OP(=O)(O)OC[C@H]1O[C@@H](n2cnc3c(N)ncnc32)[C@H](O)[C@@H]1OP(=O)(O)O` [Acetyl-CoA], for which, in assay [1], the Km turned out to be 90 ± 10 µM.
